# According to ChEMBL document CHEMBL1201862, “PubChem BioAssay data set” (2004):
# Calls of active or inactive are those of the source.
# Legend:
# Mu-type opioid receptor = Mu-type opioid receptor (Homo sapiens, UniProt P35372); assay type: functional, cell-based;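 also: U2OS cells with beta-arrestin recruitment to OPRM1 by beta-gal complementation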
# [1] = biological target: 5-hydroxytryptamine receptor 2A (Mus musculus, UniProt P35363); assay type: functional, cell-based;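 also: CHO-K1 cells with tagged receptor and beta-arrestin; agonist potency measured as compound-induced activation of the receptor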
# Sequence of 5-hydroxytryptamine receptor 2A (P35363 whole entry, the tested form may be a part): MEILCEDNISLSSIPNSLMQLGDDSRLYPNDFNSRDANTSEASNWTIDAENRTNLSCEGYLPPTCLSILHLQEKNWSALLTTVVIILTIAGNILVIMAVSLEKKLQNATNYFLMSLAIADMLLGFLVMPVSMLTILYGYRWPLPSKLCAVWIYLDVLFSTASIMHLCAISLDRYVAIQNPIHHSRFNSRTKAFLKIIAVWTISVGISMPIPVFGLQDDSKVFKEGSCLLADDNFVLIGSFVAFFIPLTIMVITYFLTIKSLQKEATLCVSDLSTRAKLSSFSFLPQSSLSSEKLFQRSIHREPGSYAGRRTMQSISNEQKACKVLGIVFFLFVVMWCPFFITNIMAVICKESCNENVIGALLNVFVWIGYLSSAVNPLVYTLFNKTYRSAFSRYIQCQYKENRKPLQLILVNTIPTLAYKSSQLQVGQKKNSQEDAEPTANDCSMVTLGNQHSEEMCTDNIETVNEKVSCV
# [2] = blockers of HIV-1 envelope-mediated cell-cell fusion – cherry-pick, dose response (AID 652057); assay type: functional, cell-based
# [3] = blockers of HIV-1 ZM109 envelope-driven cell-cell fusion – HeLa effector, CEM target cells, luciferase, cherry-pick, dose response (AID 652058); assay type: functional, cell-based;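 also: luciferase signal from HIV-1 Env mediated cell-cell fusion of effector and target cells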
# [4] = off-target signal loss in HeLa-CEM21 co-culture – HeLa F-luc CTL cells, cherry-picked, counter-screen for HIV-1 Env fusion inhibitor project, dose response (AID 652040); assay type: functional, cell-based;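 also: potency for signal decrease marking cytotoxic or nonspecific inhibition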
# [5] = HIV-1 AD8 envelope cell-cell fusion blockers – cherry-pick, dose response (AID 652062); assay type: functional, cell-based;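 also: luciferase signal from cell-cell fusion driven by HIV-1 clade B AD8 Env; potency is for inhibitors of fusion seen as a drop in luminescence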
# Fatty acid synthase [6] = biological target: T1, Fatty acid synthase (Homo sapiens, UniProt P49327); experiment: inhibition of human FAS-TE enzyme activity – biochemical, endpoint fluorescence intensity, uHTS hits, dose response (AID 624327); assay type: functional;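 also: fluorescence from hydrolysis of an O-methyl fluorescein acyl ester substrate by the enzyme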
# T1 sequence (P49327 whole entry): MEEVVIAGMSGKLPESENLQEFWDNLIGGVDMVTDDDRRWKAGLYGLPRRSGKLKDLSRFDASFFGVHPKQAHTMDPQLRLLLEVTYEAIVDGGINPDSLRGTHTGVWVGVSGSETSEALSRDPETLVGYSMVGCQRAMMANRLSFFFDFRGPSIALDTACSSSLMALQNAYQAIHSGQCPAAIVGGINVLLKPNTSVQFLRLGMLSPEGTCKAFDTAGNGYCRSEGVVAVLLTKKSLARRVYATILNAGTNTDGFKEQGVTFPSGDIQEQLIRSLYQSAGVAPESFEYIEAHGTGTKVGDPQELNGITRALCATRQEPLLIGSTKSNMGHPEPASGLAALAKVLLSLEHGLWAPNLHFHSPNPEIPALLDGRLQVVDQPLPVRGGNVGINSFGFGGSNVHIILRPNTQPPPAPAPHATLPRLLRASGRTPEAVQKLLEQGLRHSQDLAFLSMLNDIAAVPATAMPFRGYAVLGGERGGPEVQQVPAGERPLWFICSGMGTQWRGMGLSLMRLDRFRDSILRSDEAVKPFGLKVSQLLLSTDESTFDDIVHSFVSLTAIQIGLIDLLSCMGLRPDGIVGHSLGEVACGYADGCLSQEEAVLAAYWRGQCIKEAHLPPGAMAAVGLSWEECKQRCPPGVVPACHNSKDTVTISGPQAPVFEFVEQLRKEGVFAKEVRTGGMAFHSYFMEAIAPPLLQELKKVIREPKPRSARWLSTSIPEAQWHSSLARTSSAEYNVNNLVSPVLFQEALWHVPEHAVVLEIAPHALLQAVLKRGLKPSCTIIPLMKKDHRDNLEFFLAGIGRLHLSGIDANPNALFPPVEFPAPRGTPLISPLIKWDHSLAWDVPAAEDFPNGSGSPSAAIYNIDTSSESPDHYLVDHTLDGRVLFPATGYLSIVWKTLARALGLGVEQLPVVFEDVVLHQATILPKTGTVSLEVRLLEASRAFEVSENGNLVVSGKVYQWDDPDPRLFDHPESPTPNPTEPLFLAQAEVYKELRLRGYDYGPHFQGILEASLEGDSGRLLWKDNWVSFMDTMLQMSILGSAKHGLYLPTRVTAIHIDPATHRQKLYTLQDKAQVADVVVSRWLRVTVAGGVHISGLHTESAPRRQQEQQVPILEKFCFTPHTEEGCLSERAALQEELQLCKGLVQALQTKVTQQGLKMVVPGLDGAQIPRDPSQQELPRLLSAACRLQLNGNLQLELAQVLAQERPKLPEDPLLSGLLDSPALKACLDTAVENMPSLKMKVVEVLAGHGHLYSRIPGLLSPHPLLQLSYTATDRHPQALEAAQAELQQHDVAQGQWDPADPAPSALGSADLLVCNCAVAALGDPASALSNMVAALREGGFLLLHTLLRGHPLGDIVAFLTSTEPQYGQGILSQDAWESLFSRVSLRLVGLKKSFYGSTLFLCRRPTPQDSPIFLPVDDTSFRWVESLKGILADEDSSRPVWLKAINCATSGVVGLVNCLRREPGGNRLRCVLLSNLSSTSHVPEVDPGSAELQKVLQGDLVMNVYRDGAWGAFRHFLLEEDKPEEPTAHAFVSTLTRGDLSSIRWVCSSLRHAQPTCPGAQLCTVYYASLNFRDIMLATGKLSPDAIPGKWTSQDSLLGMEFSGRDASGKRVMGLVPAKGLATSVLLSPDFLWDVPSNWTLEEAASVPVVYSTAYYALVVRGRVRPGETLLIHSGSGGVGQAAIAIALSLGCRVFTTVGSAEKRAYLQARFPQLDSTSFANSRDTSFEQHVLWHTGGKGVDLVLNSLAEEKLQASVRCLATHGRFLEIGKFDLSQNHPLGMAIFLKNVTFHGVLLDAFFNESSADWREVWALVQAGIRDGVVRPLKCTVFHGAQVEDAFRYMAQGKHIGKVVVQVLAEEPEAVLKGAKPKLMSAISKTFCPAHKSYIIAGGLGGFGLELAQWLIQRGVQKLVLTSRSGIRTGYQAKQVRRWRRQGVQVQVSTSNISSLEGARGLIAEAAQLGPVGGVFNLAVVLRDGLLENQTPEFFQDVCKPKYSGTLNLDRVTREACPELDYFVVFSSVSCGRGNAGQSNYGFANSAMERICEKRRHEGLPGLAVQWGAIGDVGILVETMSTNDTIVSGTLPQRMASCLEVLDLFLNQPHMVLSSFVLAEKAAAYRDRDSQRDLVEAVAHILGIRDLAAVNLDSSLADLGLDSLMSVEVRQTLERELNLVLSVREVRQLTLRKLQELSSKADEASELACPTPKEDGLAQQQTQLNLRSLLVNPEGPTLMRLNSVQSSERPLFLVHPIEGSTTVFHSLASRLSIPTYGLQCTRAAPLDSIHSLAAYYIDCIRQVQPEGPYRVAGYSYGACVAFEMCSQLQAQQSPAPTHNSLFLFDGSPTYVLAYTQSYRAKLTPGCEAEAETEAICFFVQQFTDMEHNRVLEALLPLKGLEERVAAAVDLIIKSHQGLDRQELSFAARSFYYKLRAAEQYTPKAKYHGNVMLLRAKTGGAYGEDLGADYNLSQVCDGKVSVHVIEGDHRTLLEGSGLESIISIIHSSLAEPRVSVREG
# Fatty acid synthase [7] = biological target: T1, Fatty acid synthase; experiment: inhibition of human FAS-TE enzyme activity – biochemical, kinetic fluorescence intensity, dose response (AID 624326); assay type: functional;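 also: rate of fluorescence rise from hydrolysis of a fluorogenic O-methyl fluorescein ester substrate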
# [8] = toxicity toward HepG2 liver cells – cell-based, plate reader, cherry-pick, antagonist series, cytotoxicity control, dose response (AID 743416); assay type: functional
# [9] = blockers of bursicon-stimulated LGR2 cAMP reporter – cell-based, HEK293, CRE-luciferase reporter, cherry pick, set 2, dose response (AID 743343); assay type: functional;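 also: transfected cells were stimulated with diluted bursicon conditioned medium after compound addition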
# [10] = blockade of melanocortin 4 receptor signaling – cell-based, plate reader, cherry pick, counter-screen for LGR2 antagonist project, dose response (AID 743444); assay type: functional;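 also: transfected HEK 293 cells stimulated with alpha-MSH peptide; potency of inhibitors of the alpha-MSH evoked signal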
# [11] = biological target: Protein-tyrosine kinase 2-beta (Homo sapiens, UniProt Q14289);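 also: potency of inhibitors of PYK2 kinase phosphorylation of poly-GT substrate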
# Sequence of Protein-tyrosine kinase 2-beta (Q14289 whole entry): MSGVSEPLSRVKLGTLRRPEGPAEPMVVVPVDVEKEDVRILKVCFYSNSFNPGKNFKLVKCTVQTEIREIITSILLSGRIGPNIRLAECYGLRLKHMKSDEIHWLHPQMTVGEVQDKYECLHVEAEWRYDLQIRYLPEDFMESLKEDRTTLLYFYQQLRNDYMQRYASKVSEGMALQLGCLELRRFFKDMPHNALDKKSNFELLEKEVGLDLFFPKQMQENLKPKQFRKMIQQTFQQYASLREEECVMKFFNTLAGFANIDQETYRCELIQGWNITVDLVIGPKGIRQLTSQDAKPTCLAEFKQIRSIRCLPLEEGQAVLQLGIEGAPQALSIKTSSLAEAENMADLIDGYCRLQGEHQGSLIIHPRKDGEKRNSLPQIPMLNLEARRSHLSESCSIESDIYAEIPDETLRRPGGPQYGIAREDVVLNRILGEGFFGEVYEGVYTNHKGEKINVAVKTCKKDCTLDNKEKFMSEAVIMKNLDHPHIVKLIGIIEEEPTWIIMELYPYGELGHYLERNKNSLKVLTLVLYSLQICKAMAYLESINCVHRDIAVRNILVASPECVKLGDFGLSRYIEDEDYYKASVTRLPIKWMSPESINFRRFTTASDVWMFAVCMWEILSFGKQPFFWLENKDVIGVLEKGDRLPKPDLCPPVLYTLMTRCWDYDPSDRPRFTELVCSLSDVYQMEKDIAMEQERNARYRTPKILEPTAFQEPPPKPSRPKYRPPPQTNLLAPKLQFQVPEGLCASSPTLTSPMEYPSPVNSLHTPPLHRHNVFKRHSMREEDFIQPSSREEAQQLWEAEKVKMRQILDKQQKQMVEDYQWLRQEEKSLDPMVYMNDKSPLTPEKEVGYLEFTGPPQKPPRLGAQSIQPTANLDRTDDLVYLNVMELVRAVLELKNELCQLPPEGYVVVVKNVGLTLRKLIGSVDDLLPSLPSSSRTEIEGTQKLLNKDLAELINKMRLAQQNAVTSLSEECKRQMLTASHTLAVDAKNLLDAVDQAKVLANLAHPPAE
# [12] = biological target: T2, Ubiquitin carboxyl-terminal hydrolase BAP1 (Homo sapiens, UniProt Q92560); experiment: inhibition of BAP1 ubiquitin hydrolase activity – biochemical, dose response (AID 714); assay type: functional
# T2 sequence (Q92560 whole entry): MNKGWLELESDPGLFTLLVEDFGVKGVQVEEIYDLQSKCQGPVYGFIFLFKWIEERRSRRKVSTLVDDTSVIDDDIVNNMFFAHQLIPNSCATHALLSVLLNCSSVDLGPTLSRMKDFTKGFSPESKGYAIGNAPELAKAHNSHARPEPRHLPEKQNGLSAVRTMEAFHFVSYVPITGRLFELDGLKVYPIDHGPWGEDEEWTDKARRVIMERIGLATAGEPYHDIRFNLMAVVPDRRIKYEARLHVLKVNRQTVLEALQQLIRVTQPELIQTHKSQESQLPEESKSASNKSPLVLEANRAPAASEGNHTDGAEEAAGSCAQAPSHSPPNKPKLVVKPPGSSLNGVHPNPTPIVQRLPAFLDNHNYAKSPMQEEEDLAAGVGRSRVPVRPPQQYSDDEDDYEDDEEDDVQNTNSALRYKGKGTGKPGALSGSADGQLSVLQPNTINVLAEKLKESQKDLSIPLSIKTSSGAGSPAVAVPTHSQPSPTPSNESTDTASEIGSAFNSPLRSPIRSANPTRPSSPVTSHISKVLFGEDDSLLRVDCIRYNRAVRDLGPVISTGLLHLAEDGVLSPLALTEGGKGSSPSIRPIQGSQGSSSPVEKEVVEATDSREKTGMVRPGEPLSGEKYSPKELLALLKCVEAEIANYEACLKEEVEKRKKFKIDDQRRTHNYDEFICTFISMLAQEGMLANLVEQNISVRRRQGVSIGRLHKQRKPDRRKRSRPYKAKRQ
# Protein Tat = biological target: T3, Protein Tat (Human immunodeficiency virus type 1 group M subtype B (isolate HXB2)(HIV-1), UniProt P04608); assay type: functional;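 also: tat binding to TAR RNA read out by fluorescence polarization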
# T3 sequence (P04608 whole entry): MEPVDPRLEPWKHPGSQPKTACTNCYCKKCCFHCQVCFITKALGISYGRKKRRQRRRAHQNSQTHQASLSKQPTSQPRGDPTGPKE
# [13] = viability loss in THP-1 monocytes – THP-1 cells, cytotoxicity control for Vif-APOBEC3G degradation inhibitor project, dose response (AID 1117359); assay type: functional; settings: THP-1
# cells [14] = assay type: functional, cell-based
# [15] = biological target: T4, Trace amine-associated receptor 1 (Homo sapiens, UniProt Q96RJ0); experiment: Fluorescence-based cell-based high throughput dose response assay to identify agonists of the human trace amine associated receptor 1 (TAAR1).; assay type: functional
# T4 sequence (Q96RJ0 whole entry): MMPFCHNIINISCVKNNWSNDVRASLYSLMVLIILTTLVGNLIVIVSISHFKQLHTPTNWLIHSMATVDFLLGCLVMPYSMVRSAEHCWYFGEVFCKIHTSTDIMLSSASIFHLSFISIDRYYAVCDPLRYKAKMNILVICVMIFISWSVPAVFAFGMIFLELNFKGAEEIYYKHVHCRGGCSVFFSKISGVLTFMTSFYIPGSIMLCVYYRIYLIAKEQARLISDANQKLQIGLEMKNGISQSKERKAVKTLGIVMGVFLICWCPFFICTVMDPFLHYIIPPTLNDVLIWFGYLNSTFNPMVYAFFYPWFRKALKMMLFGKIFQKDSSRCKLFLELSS
# [16] = biological target: T4, Trace amine-associated receptor 1; experiment: Counterscreen for agonists of the human trace amine associated receptor 1 (hTAAR1): Fluorescence-based cell-based high throughput dose response assay to identify hTAAR1 agonist that also desensitize TAAR1 receptor response.; assay type: functional
# cells [17] = assay type: functional, cell-based; remark: listed apart in the source
# [18] = NIH-3T3 fibroblast cytotoxicity, dose response, cytotoxicity control, cell-based, fluorescence, Alamar Blue, secondary assay (AID 2327); assay type: functional;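 also: NIH-3T3 mouse fibroblasts cultured with fluconazole at 8 µg/mL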
# [19] = fluconazole-exposed Candida albicans growth modulators – fluorescence, retest, confirmation (AID 2467); assay type: functional, cell-based
# [20] = Trypanosoma cruzi growth suppression in host cells – NIH3T3 host cells, beta-gal luminescence, confirmation (AID 2044); assay type: functional, cell-based;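 also: intracellular parasites grown in NIH/3T3 mouse fibroblasts as host cells; luminescent beta-galactosidase reporter signal from transgenic T. cruzi replicating inside host cells; inhibitors lower the luminescence signal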
# [21] = NIH3T3 cell viability loss – ATP luminescence, mouse fibroblasts, counter-screen, dose response (AID 2010); assay type: functional, cell-based;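 also: cells exposed to compound for about 90 hours before reading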
# [22] = biological target: T5, Microphthalmia-associated transcription factor (Homo sapiens, UniProt O75030); experiment: reducers of TRPM1 reporter luminescence, concentration series – cell-based, SK-MEL-5, cherry-picked, set 3, MITF inhibitor project, dose response (AID 493073); assay type: functional;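 also: SK-MEL-5 melanoma cells with luciferase driven by the MITF target TRPM1 promoter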
# T5 sequence (O75030 whole entry): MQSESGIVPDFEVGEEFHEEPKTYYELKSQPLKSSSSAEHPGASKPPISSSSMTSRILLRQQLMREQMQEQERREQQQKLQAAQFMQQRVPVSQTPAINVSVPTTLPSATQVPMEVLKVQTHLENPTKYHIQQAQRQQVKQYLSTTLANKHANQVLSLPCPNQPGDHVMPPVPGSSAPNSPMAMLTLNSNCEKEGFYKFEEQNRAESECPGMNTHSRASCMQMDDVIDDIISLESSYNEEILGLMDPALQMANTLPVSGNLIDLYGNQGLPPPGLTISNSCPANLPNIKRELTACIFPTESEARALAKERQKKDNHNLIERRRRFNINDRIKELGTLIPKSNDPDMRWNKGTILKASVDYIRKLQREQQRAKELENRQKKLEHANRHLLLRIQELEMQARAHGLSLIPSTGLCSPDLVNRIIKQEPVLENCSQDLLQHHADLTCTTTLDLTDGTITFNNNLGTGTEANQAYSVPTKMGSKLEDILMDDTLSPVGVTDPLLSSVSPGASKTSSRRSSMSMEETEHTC
# Protein Wnt-3a = Protein Wnt-3a (Mus musculus, UniProt P27467); experiment: antagonism of Wnt3a pathway luciferase reporter – Wnt-LIGHT cells, luminescence, selectivity assay for Gli-SUFU antagonist project, dose response (AID 651570); assay type: functional; settings: read-out: IC50_Mean;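 also: Wnt-LIGHT reporter cells stimulated with conditioned medium from Wnt3a-producing cells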
# Sequence of Protein Wnt-3a (P27467 whole entry): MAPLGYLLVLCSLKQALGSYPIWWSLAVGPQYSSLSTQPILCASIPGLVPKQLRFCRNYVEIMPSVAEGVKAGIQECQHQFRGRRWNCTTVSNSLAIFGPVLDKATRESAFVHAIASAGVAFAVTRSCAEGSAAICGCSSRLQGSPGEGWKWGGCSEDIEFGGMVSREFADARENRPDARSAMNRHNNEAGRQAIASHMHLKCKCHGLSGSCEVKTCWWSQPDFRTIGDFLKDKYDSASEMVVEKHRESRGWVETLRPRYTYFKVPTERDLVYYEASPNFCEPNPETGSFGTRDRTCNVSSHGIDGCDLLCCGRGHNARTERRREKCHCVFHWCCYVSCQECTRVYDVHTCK
# cells [23] = experiment: cells
# [24] = biological target: T6, Calpain-2 catalytic subunit (Sus scrofa, UniProt P43367); experiment: m-calpain protease blockers, concentration series – biochemical, fluorogenic peptide substrate, dose response (AID 1420); assay type: functional
# T6 sequence (P43367 whole entry): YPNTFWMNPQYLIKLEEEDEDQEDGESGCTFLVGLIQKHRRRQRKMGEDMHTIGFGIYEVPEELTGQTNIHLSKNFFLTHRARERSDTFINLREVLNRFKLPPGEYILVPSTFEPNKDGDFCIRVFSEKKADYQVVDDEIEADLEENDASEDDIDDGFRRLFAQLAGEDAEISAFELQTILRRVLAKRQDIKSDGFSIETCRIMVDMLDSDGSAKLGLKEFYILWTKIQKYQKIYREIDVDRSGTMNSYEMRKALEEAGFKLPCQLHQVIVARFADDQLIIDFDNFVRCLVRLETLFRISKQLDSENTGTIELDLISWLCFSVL
# Kallikrein-7 = Kallikrein-7 (Homo sapiens, UniProt P49862); experiment: Fluorescence Intensity-based biochemical primary high throughput dose response assay to identify activators of kallikrein-7 (K7) zymogen.
# Sequence of Kallikrein-7 (P49862 whole entry): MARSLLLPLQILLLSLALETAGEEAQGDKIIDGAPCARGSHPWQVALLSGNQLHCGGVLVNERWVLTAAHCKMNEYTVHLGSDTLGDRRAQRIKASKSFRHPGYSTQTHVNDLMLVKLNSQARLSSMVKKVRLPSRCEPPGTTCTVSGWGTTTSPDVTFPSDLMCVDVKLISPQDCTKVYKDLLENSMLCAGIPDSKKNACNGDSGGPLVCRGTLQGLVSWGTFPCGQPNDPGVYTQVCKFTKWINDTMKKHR
# [25] = Dd2 parasite growth inhibition in erythrocytes – SYBR Green, dry powder samples, set 9, dose response (AID 1159568); assay type: functional, cell-based
# Sequence of Mu-type opioid receptor (P35372 whole entry): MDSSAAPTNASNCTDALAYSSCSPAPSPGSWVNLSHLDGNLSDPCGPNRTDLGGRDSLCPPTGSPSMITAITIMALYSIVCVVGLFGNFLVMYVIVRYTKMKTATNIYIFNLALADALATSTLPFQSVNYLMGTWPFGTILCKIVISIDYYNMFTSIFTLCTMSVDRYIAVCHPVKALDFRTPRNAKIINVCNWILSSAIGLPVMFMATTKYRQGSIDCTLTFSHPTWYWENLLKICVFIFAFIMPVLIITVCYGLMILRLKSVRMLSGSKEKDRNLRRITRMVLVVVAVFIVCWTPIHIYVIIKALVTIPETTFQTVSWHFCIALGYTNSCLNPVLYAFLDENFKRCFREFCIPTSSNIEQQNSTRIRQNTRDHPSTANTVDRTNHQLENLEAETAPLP
structure (smiles),measurement,setting,value
Cc1ccc(CN2CCN(c3ccccn3)CC2)s1,EC50,Mu-type opioid receptor,92.5 µM (inactive)
same,EC50,[1],0.0593 µM (active)
CC(=O)c1ccc(OCC(O)CN2CCN(c3ccccn3)CC2)cc1 (stereo not drawn),EC50,Mu-type opioid receptor,92.4 µM (inactive)
same,EC50,[1],0.865 µM (active)
CCOc1ccc(N(CC(=O)NCCSCc2ccc(Cl)cc2)S(C)(=O)=O)cc1,AC50,[2],5.62 µM (active)
same,AC50,[3],9.3 µM (active)
same,AC50,[4],9.39 µM (active)
same,AC50,[5],5.88 µM (active)
O=Cc1cn(Cc2cccc([N+](=O)[O-])c2)c2ccccc12,IC50,Fatty acid synthase [6],12 µM (active)
same,IC50,Fatty acid synthase [7],10.9 µM (active)
same,AC50,[8],0.625 µM (active)
same,AC50,[9],1.28 µM (active)
same,AC50,[10],0.801 µM (active)
COc1cccc(CN2CC(=O)C(c3nc(-c4ccc(Cl)cc4)cs3)=C2N)c1,IC50,[11],5.59 µM (active)
CN(C)c1ccc(NC(=O)CSc2nc3ccccc3c(=O)n2C2CCCCC2)cc1,IC50,[12],30.2 µM (not active)
same,IC50,Protein Tat,47.4 µM (inconclusive)
same,CC50,[13],> 40 µM (active)
O=C(Oc1ccccc1Cl)c1ccccc1P(=O)(O)O,IC50,[11],4.49 µM (active)
O=C(O)/C=C/C(=O)NCCc1ccc(Cl)cc1,IC50,cells [14],> 29.9 µM (inactive)
same,EC50,[15],51.7 µM (inactive)
same,IC50,[16],> 29.9 µM (inactive)
same,EC50,cells [17],> 29.9 µM (inactive)
Cc1ccn2c(=O)c(C(=O)NCCC3=CCCCC3)c(O)nc2c1,IC50,cells [14],> 29.9 µM (inactive)
same,EC50,[15],3.44 µM (active)
same,IC50,[16],> 29.9 µM (inactive)
same,EC50,cells [17],> 29.9 µM (inactive)
O=C(NC1CCCCC1)C(=S)NCCc1ccccc1,IC50,cells [14],> 29.9 µM (inactive)
same,EC50,[15],2.41 µM (active)
same,IC50,[16],5.49 µM (active)
same,EC50,cells [17],> 29.9 µM (inactive)
OC(COCc1cccs1)CN1CCN(c2ccccn2)CC1 (stereo not drawn),EC50,Mu-type opioid receptor,92.5 µM (inactive)
same,EC50,[1],0.637 µM (active)
CCOc1ccc(-c2cc(C)[n+](CCO)c(-c3ccc(OCC)cc3)c2)cc1.[O-][Cl+3]([O-])([O-])[O-],EC50,[18],> 160 µM (inactive)
same,EC50,[19],> 38 µM (not active)
same,EC50,[20],< 0.1 µM (active)
same,EC50,[21],> 60 µM (inconclusive)
same,AC50,[22],11.1 µM (active)
same,IC50,Protein Wnt-3a,50 µM (inactive)
same,EC50,cells [23],0.079 µM (active)
CCOc1ccc(NC2=NC(=O)S/C2=C\c2ccc(Cl)cc2)cc1,IC50,[11],2.79 µM (active)
same,IC50,[24],> 50 µM (not active)
O=C(NCc1ccco1)c1cc2n(n1)C(C(F)(F)F)CC(c1ccc(Br)cc1)N2 (stereo not drawn),IC50,[12],> 50 µM (not active)
Cc1cccc2cc(C(c3nnnn3C(C)(C)C)N3CCN(C(=O)c4ccco4)CC3)c(=O)[nH]c12 (stereo not drawn),IC50,[12],17.3 µM (active)
CC1(C(=O)NCc2cccc3ccccc23)CCN1Cc1ccc(-c2ccccc2)o1 (stereo not drawn),AC50,[2],2.31 µM (active)
same,AC50,[3],4.71 µM (active)
same,AC50,[4],4.07 µM (active)
same,AC50,[5],2.57 µM (active)
C[C@H](O)[C@@H]1C(=O)N2CCc3c([nH]c4ccccc34)[C@@H]2C[C@@H]1N(C)S(=O)(=O)c1ccccc1,EC50,Kallikrein-7,7.44 µM (active)
Cc1ccc(/C=N/c2ccccc2C(N)=O)cc1,EC50,Kallikrein-7,> 69.5 µM (inactive)
CCC(/C=C(\O)c1ccncc1)=N\c1ccc(O)cc1,IC50,Protein Tat,18.3 µM (inconclusive)
same,CC50,[13],> 40 µM (active)
COc1ccc(NC(=O)N(C)C[C@H]2Oc3c(NC(=O)CCCCCC(=O)Nc4ccccc4N)cccc3C(=O)N([C@H](C)CO)C[C@H]2C)cc1,AC50,[25],0.304 µM (active)
COc1ccccc1C#Cc1ccc([C@@H]2[C@@H](CO)N3CCCCN(C(=O)C4CCC4)C[C@H]23)cc1,AC50,[25],8.41 µM (active)
